# According to paper PMC12667295, “A surrogate barrier model for high-throughput blood-brain barrier permeability prediction: integrating LLC-PK1-MOCK/MDR1 Cells and lysosomal trapping correction” (Drug Delivery, 2025):
# Read-outs that look alike come from different tables or passages of the source.
# Key:
# [1] = Bidirectional transport across LLC-PK1 MOCK monolayer (Transwell); settings: pig;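 further: compound quantified by LC-MS/MS in donor and receiver wells, efflux ratio as B-A over A-B Papp, recovery relative to initial donor amount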
# Protocol: (§3) Cells were passaged at 80−90% confluence (every 2−3 days) using trypsin-EDTA solution. […] The culture medium was replaced every other day, including 200 µL culture medium in the apical and 850 µL cell culture medium in the basolateral side. LLC-PK1 MOCK cells were used at passages of 3−30. LLC-PK1-MDR1 cells were cultured and passaged in the same manner as LLC-PK1 cells except at the density of 1 × 10^4 cells per well. LLC-PK1-MDR1 cells were used at passages of 3−25. For LLC-PK1 MOCK cells and LLC-PK1-MDR1 cells, the experiments were performed on the 4th and 7th day after seeding.
# (§4) Samples were collected from the donor well at the start of the incubation (50 µL) as C0, and from the donor and receiver wells at the end of the incubation (50 µL). All samples were stored at - 40 °C for LC-MS/MS analysis.
# (§5) Bidirectional transport experiments. […] The transwell experiments were conducted following above-mentioned procedure. […] When the recovery rate of the tested drug is below 80%, the possibility of intracellular accumulation should be considered. The polycarbonate (PC) membrane where cells are grown should be carefully peeled off from the cell culture medium and placed in 100 µL of HBSS buffer solution. […] The process was carried out on ice to prevent heat-induced degradation, applying a power in the range of 300 W for a total duration of 20 minutes. Thereafter, a quantitative analysis of the intracellular drug was conducted, and the drug recovery rate was recalculated based on this analysis.
# (§6) The apparent permeability coefficient (Papp, cm/s) was calculated for each transport direction, A-B and B-A, using the following equation: Papp=dQ/dt×1/A×C0 where dQ/dt is the permeation rate (µmol/s), A is the surface area of the insert (0.33 cm^2, Corning), and C0 is the initial donor concentration (µM).
# (§7) The efflux ratio (ER) is calculated as the ratio of Papp (B-A)/Papp (A-B). Recovery=TRcumrf+Cdf×VD/Cdi×VD×100% Where TRcumrf is the cumulative transported mass in the receiver chamber at the end of the incubation (nmol), Cdf is the concentration of the drug in the donor chamber at the end of the incubation (μM), VD is the volume of the donor chamber (mL), and Cdi is the initial concentration of the drug in the donor chamber (μM).
# (§8) The method of the bidirectional transport experiment was the same as before.
# [2] = system: P-gp (human MDR1); assay: in vitro; settings: pig, LLC-PK1, pH 7.4;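 further: 2 h incubation at 37 °C, receiver HBSS with 10 mM Hepes plus 1% BSA, LC-MS/MS of donor and receiver, recovery as receiver plus donor amount over initial donor amount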
# [3] = Brain distribution in rats (Kp,brain, Kp,uu,brain); settings: rat
# Excerpt: In vivo unbound brain distribution data (Kp,uu,Brain) for 16 drugs and total brain distribution data (Kp,Brain) for 16 drugs was acquired from literature. […] For each tested compound, fifteen rats were randomly divided into five groups of three rats each. […] The time of execution of the rats by CO2 inhalation after administration was optimized according to the in vivo elimination rate to achieve five concentrations of different time points. After the rats were euthanized, cardiac puncture was performed immediately to remove as much whole blood as possible (~7 ml) from the systemic circulation (Quantitatively aliquot 0.2 ml of whole blood for the determination of drug concentration in plasma). Afterwards, the brain tissue was collected immediately and rinsed repeatedly with ice-cold saline 3 times. Then, the surface saline was blotted dry with clean filter paper to remove as much residual drug in the blood vessels as possible. Plasma samples were prepared by centrifugation of the blood samples at 2,500 g for 10 minutes at 4 °C. All brain samples were homogenized by adding 4-fold volume water. All samples were stored at -40 °C before LC-MS/MS analysis. […] The brain tissue partition coefficient (Kp, brain) and brain-to-plasma unbound drug partition ratio (Kp,uu, brain) are calculated according to the following formulas, respectively: Kp,brain=AUC(0−∞,brain)/AUC(0−∞,plasma)Kp,uu,brain=Kp,brain×(fu,tissue/fu,plasma)
# Free brain-to-plasma distribution coefficients (Kp,uu,brain) of 41 drugs. Brain distribution coefficients (Kp,uu,brain) were calculated for 41 drugs. […] Plasma and brain concentration-time profiles were generated, and AUC(0-t) values for both matrices were calculated using WinNolin 8.1. Kp,brain was derived as the ratio of brain-to-plasma AUC(0-t).
# Kp,uu,brain values were computed by normalizing Kp,brain to unbound fractions (fu,plasma and fu,brain).
# [4] = Protein binding in rat brain homogenate (equilibrium dialysis)
# Protocol: (§1) Stocks (10 mM) of test compounds were diluted to 5 μM with plasma or tissue homogenate and dialyzed at 37 °C for 6 hours in a shaking incubator. After incubation aliquots of both plasma or tissue homogenate and buffer from the device were taken and added to equal volumes of blank buffer and plasma or tissue homogenate respectively. Samples were then diluted in acetonitrile containing an internal standard prior to centrifugation and analysis of the supernatants by LC-MS/MS. The fu, plasma was calculated using Equation 1:(1) fu,plasma=Concbuffer chamber/Concsample chamber
# Rat fraction unbound in brain (fu, brain) was determined as the ratio of concentration in buffer to that in brain.
# (§2) Unbound fractions of test drugs in plasma (fu,plasma) and brain tissue (fu,brain). For compounds with existing rat plasma or brain protein-binding data from literature or internal studies, values were directly adopted.
# [5] = system: P-gp (human MDR1); assay: Bidirectional transport across LLC-PK1-MDR1 monolayer stably expressing human MDR1 (P-gp) (Transwell); settings: pig;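 further: 2 h incubation at 37 °C, receiver HBSS with 10 mM Hepes plus 1% BSA, LC-MS/MS of donor and receiver, recovery as receiver plus donor amount over initial donor amount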
# [6] = Protein binding in rat plasma (equilibrium dialysis)
# Protocol: as §1, §2
# [7] = in vitro; settings: pig; for recovery at 2 h, 2 µM: LLC-PK1 MOCK cell monolayer (Transwell), pH 7.4
# Protocol: as §3, §4, §5, §6, §7, §8
# [8] = cited from earlier work
# [9] = footnote b, species not stated; ref https://go.drugbank.com; cited from earlier work
# [10] = LLC-PK1, pH 7.4, Papp A-B, LLC-PK1 MOCK, 2 µM, 2 h, mean ± s, n = 3, BLQ = below 2 nM
# [11] = LLC-PK1, pH 7.4, Papp A-B, LLC-PK1-MDR1, 2 µM, 2 h, mean ± s, n = 3
Structure (SMILES),"Papp B→A at 2 h, 2 µM ([1]; LLC-PK1, pH 7.4) [×10⁻⁶ cm/s]","efflux ratio at 2 h, 2 µM ([1]; LLC-PK1, pH 7.4)","recovery at 2 h, 2 µM [2] [%]","Papp A→B at 2 h, 2 µM ([5]; LLC-PK1, pH 7.4) [×10⁻⁶ cm/s]","Papp B→A at 2 h, 2 µM ([5]; LLC-PK1, pH 7.4) [×10⁻⁶ cm/s]","efflux ratio at 2 h, 2 µM ([5]; LLC-PK1, pH 7.4)","Papp A→B at 2 h, 2 µM [1, 10] [×10⁻⁶ cm/s]","recovery at 2 h, 2 µM [7] [%]",Kp uu [3],"fraction unbound at 6 h, 5 µM ([4]; rat, brain homogenate)","fraction unbound at 6 h, 5 µM ([6]; rat, plasma)",other results
COc1ccc2c(c1)[C@]13CCCC[C@@H]1[C@H](C2)N(C)CC3 [Dextromethorphan],25.9 ± 0.91,0.73,93.6 ± 6.54,18.8 ± 0.12,21.9 ± 3.18,1.17,,,,,,"Papp A→B at 2 h, 2 µM ([1]; LLC-PK1, pH 7.4): 35.5 ± 2.09 ×10⁻⁶ cm/s; Kp ([3]; SD, in vivo, iv, 1 mg/kg): 11.5; Kp uu ([3]; SD, in vivo, iv, 1 mg/kg): 0.825; fraction unbound at 6 h, 5 µM [4]: 0.033; fraction unbound at 6 h, 5 µM [6]: 0.35"
COc1ccc2c(c1)c(CC(=O)O)c(C)n2C(=O)c1ccc(Cl)cc1 [Indomethacin],18.9 ± 0.31,1.18,99.7 ± 4.24,14.9 ± 1.29,20.3 ± 2.74,1.36,16.1 ± 2.07,109 ± 5.97,,,,"Kp, Brain ([8]; ref Fridén [2009]): 0.01; Kp,uu,Brian ([8]; ref Fridén [2009]): 0.11"
COc1ccc2[nH]c([S+]([O-])Cc3ncc(C)c(OC)c3C)nc2c1 (stereo not drawn) [Omeprazole],28.9 ± 1.39,,113 ± 1.46,,41.5 ± 2.92,,34.2 ± 0.55,,1.09,0.321,0.045,"Papp A→B at 2 h, 2 µM [5, 11]: 25.4 ± 0.66 ×10⁻⁶ cm/s; Kp, Brain ([8]; ref Cheng et al. [2002]): 0.15"
CCOc1ccc(NC(C)=O)cc1 [Phenacetin],,,,36.6 ± 2.48,29 ± 1.19,,35.2 ± 0.08,,,0.419,0.416,"Kp uu ([3]; SD, iv, 1 mg/kg): 0.768; Kp ([3]; SD, iv, 1 mg/kg, Kp, Brain): 0.763; Papp B→A at 2 h, 2 µM ([7]; LLC-PK1, pH 7.4): 27.2 ± 1.32 ×10⁻⁶ cm/s"
COc1cc([C@@H]2c3cc4c(cc3[C@@H](O[C@@H]3O[C@@H]5CO[C@@H](C)O[C@H]5[C@H](O)[C@H]3O)[C@H]3COC(=O)[C@H]23)OCO4)cc(OC)c1O [Etoposide],0.16 ± 0.02,,100 ± 2.47,0.75 ± 0.1,3.68 ± 0.22,,,106 ± 0.11,,< 0.01,,"Kp ([3]; SD, iv, 1 mg/kg, Kp, Brain): 0.025; Kp ([3]; SD, iv, 1 mg/kg, Kp,uu,Brian): 0.008; Protein binding in plasma [9]: 97.0^b %"
CC(NC(C)(C)C)C(=O)c1cccc(Cl)c1 (stereo not drawn) [Bupropion],23.8 ± 0.67,,,26.6 ± 2.58,19.5 ± 1,,27.3 ± 2.88,,,,,"Kp, Brain ([8]; ref Fridén [2009]): 9.78; Kp,uu,Brian ([8]; ref Fridén [2009]): 2.000"
Cn1c(=O)c2c(ncn2C)n(C)c1=O [Caffeine],34.1 ± 1.49,,,,33.3 ± 1.49,,34 ± 1.22,121 ± 2.48,0.576,0.719,0.772,"Papp A→B at 2 h, 2 µM [5, 11]: 36.4 ± 1.42 ×10⁻⁶ cm/s; Kp, Brain ([8]; ref Bohnert [2016]): 0.618"
CN(C)CCOC(c1ccccc1)c1ccccc1 [Diphenhydramine],,,,,,,,101 ± 7.46,,,,
COCCOC(=O)C1=C(C)NC(C)=C(C(=O)OC(C)C)C1c1cccc([N+](=O)[O-])c1 (stereo not drawn) [Nimodipine],46.2 ± 1.79,1.37,114 ± 5.22,32.2 ± 1.83,44.5 ± 5.11,1.39,33.7 ± 2.08,109 ± 7.08,< 0.451,< 0.01,,"Kp, Brain ([8]; ref Li [2020]): 2.25; Protein binding in plasma [9]: 95.0^b %"
